One test has as its system Liver. The test can be described thus: Ex-vivo luminescence signal from liver after IV Fluc mRNA LNPs in CD1 mice (IVIS). Particulars: tail vein 1.0 mg/kg Day 0 and Day 2, imaging 18 hours after second dose, Table 4.
For a further test, the system named is B16F10 Cell Line. The test can be described thus: Transfection of B16F10 Cell Line with FLuc mRNA LNPs (ONE-Glo EX luciferase signal). In kind it is cell-based. To be noted: 200 ng Fluc mRNA-LNP, 24 hours; Table 4. On the procedure:
(§1) mRNA encapsulated lipid nanoparticles (mRNA LNPs) were formulated using microfluidic mixing with a PNI Ignite instrument. Briefly, lipids (ionizable: structural: helper: PEG) were dissolved in ethanol and mixed with and aqueous solution of mRNA. These mRNA-loaded dispersions were then neutralized via a buffer exchange with a pre-determined buffer overnight. Afterwards, formed LNPs were concentrated with Amicon filter centrifugation, filtered, concentration of mRNA determined through a ribogreen assay, and frozen at −80° C. until use.
(§2) Cell lines were grown to confluence in T75 flasks using complete media of DMEM-F12 for AML12 and DMEM for both B16F10 and MC38.K. Cells were plated in a white 96 flat-well plate (AML12=20,000 cells/well, B16F10 and MC38.K=5,000 cells/well) with their respected media. Lipid nanoparticles were first diluted to 50 μg/ml using Opti-MEM and pre-incubated with mouse serum for 30 minutes to give an LNP concentration of 8 μg/ml. Cell media was replaced with Opti-MEM and LNPs were added to cells (200 ng of mRNA-LNP), placed back in the incubator, and allowed to transfect for 24 hours. Afterwards, 100 μl of Promega's ONE-Glo™ EX Luciferase Assay System or Promega's CellTiter-Glo® Luminescent Cell Viability Assay was added and mixed in their respective wells, followed by recording luminescence signals on a Thermo Scientific Varioskan LUX multimode microplate reader. The results are shown in FIG. 1, FIG. 2, FIG. 3, FIG. 4, FIG. 5, FIG. 6, FIG. 10, FIG. 11, and FIG. 21.

The test system of the next test is MC38.K Cell Line. The test can be described thus: Transfection of MC38.K Cell Line with FLuc mRNA LNPs (ONE-Glo EX luciferase signal). In kind it is cell-based. To be noted: 200 ng Fluc mRNA-LNP, 24 hours; Table 4. The method, then:
as §1, §2

The next test deals with AML12 Cell Line. The test can be described thus: Transfection of AML12 Cell Line with FLuc mRNA LNPs (ONE-Glo EX luciferase signal). In kind it is cell-based. To be noted: 200 ng Fluc mRNA-LNP, 24 hours; Table 4. The method, then:
as §1, §2

`CCCCCCCCC(CCCCCCCF)OC(=O)CCCCCCCN(CCO)CCCCCC(=O)OC(CCCCCCCC)CCCCCC(C)C` (stereo not drawn) [Compound 55, 1-fluorohexadecan-8-yl 8-((2-hydroxyethyl)(6-((2-methylhexadecan-8-yl)oxy)-6-oxohexyl)amino)octanoate]: in the test with Liver, the “Total Liver Tissue Luciferin Signal (Photons/s) Ex-vivo - CD1” value (from here on “Total Liver Tissue Luciferin Signal”) is 1.93E+10 Photons/s. Also, the “Total Luciferin Signal (RLU) In Vitro - B16F10” value in the test on B16F10 Cell Line was 1.10E+06 RLU. Moreover, the “Total Luciferin Signal (RLU) In Vitro - MC38.K” value in the test with MC38.K Cell Line was determined as 1.80E+06 RLU. In addition, in the test with AML12 Cell Line, the “Total Luciferin Signal (RLU) In Vitro - AML12” value turned out to be 4.19E+05 RLU.
In the same order, the values of `CCCCCCCCC(CCCCCCCC)OC(=O)CCCCCCCN(CCO)CCCCCCC(C)C(=O)OCCCCCCCCC(C)C` (stereo not drawn) [Compound 59, 9-methyldecyl 8-((8-(heptadecan-9-yloxy)-8-oxooctyl)(2-hydroxyethyl)amino)-2-methyloctanoate] are 5.55E+09 Photons/s, 6.17E+05 RLU, 8.40E+06 RLU and 8.24E+05 RLU.
On the same counts, the results for `CCCCCCCCC(CCCCCCCCF)C(=O)OCCCCCCCN(CCCCO)CCCCCCCOC(=O)CCCCCCCCC(C)C` (stereo not drawn) [Compound 69, 7-((7-((10-fluoro-2-octyldecanoyl)oxy)heptyl)(4-hydroxybutyl)amino)heptyl 10-methylundecanoate] are 4.64E+09 Photons/s, 3.62E+06 RLU, 4.67E+07 RLU and 8.05E+06 RLU.
With `CCCCCCCCC(CCCCCCCCF)OC(=O)CCCCCN(CCO)CCCCCC(=O)OCCCCCCCCCCC(C)C` (stereo not drawn) [Compound 70, 1-fluoroheptadecan-9-yl 6-((2-hydroxyethyl)(6-((11-methyldodecyl)oxy)-6-oxohexyl)amino)hexanoate], the “Total Liver Tissue Luciferin Signal” value in the test on Liver is reported as 4.87E+09 Photons/s. The “Total Luciferin Signal (RLU) In Vitro - B16F10” value in the test on B16F10 Cell Line is recorded as 7.68E+05 RLU. Besides, in the test with MC38.K Cell Line, the “Total Luciferin Signal (RLU) In Vitro - MC38.K” value was determined as 5.15E+06 RLU. In addition, in the test with AML12 Cell Line, the “Total Luciferin Signal (RLU) In Vitro - AML12” value was 7.41E+05 RLU.
In the same order, the values of `CCCCCCCCC(CCCCCCCF)OC(=O)CCCCCCCN(CCO)CCCCCC(=O)OC(CCCCCCCC)CCCCCCCC` (stereo not drawn) [Compound 29] are 7.57E+09 Photons/s, 8.63E+05 RLU, 2.97E+05 RLU and 8.52E+04 RLU.
On to `CCCCCCCCCOC(=O)CCCCCCCN(CCO)CCCCCCCC(=O)OCC(CCCCCC)CCCCCCCCF` (stereo not drawn) [Compound 72, 10-fluoro-2-hexyldecyl 8-((2-hydroxyethyl)(8-(nonyloxy)-8-oxooctyl)amino)octanoate], for which the “Total Liver Tissue Luciferin Signal” value in the test on Liver is reported as 3.60E+09 Photons/s. Further, in the test with B16F10 Cell Line, the “Total Luciferin Signal (RLU) In Vitro - B16F10” value is 7.23E+05 RLU. Further, the “Total Luciferin Signal (RLU) In Vitro - MC38.K” value with MC38.K Cell Line is 5.53E+06 RLU. Besides, the “Total Luciferin Signal (RLU) In Vitro - AML12” value in the test with AML12 Cell Line stood at 2.78E+06 RLU.
In the same order, the values of `CCCCCCCCCOC(=O)CCCCCCCN(CCCCCCCC(=O)OC(CCCCCCCC)CCCCCCCCF)CCN(C)C` (stereo not drawn) [Compound 56, 1-fluoroheptadecan-9-yl 8-((2-(dimethylamino)ethyl)(8-(nonyloxy)-8-oxooctyl)amino)octanoate] are 1.77E+09 Photons/s, 1.54E+07 RLU, 2.52E+07 RLU and 6.63E+06 RLU.
On the same counts, the results for `CCCCCCCCCCCOC(=O)CCCCCN(CCO)CCCCCCCC(=O)OC(CCCCCCCC)CCCCCCCF` (stereo not drawn) [Compound 24] are 1.04E+10 Photons/s, 3.37E+05 RLU, 7.60E+05 RLU and 5.98E+05 RLU.
In the same order, the values of `CCCCCCCCC(CCCCCCCC)C(=O)OCCCCCCCN(CCO)CCCCCC(=O)OCCCCCCCCC(C)C` [Compound 6] are 2.10E+09 Photons/s, 5.77E+05 RLU, 9.66E+05 RLU and 8.42E+05 RLU.
In the case of `CCCCCCCCC(CCCCCCCC)OC(=O)CCCCCN(CCO)CCCCCC(=O)OCCCCCCCCCCC(C)C` [Compound 16], in the test on Liver, the “Total Liver Tissue Luciferin Signal” value came out at 5.11E+09 Photons/s. Also, the “Total Luciferin Signal (RLU) In Vitro - B16F10” value with B16F10 Cell Line is 7.67E+06 RLU. For the same compound, the “Total Luciferin Signal (RLU) In Vitro - MC38.K” value with MC38.K Cell Line is listed as 2.39E+06 RLU. In the test on AML12 Cell Line, the “Total Luciferin Signal (RLU) In Vitro - AML12” value is 1.67E+06 RLU.
On the same counts, the results for `CCCCCCCCCCCOC(=O)CCCCCN(CCO)CCCCCCCC(=O)OC(CCCCCCCC)CCCCCCCCF` (stereo not drawn) [Compound 33] are 2.93E+09 Photons/s, 4.80E+05 RLU, 1.07E+06 RLU and 1.38E+05 RLU.
On the same counts, the results for `CCCCCCCCCOC(=O)CCCCCCCN(CCCO)CCCCCCCC(=O)OC(CCCCCCCC)CCCCCCCCF` (stereo not drawn) [Compound 30] are 1.53E+10 Photons/s, 1.16E+05 RLU, 4.65E+05 RLU and 8.06E+05 RLU.
In the same order, the values of `CCCCCCCCC(CCCCCCCC)OC(=O)CCCCCCCN(CCO)CCCCCCCOC(=O)CCCCCCCCC(C)C` [Compound 11] are 4.88E+09 Photons/s, 7.92E+06 RLU, 7.64E+06 RLU and 4.29E+06 RLU.
In the case of `CC(C)CCCCCCCCOC(=O)CCCCCCCN(CCO)CCCCCCCC(=O)OCCCCCCCCC(C)C` [Compound 45], the “Total Liver Tissue Luciferin Signal” value in the test with Liver amounted to 4.18E+08 Photons/s. The “Total Luciferin Signal (RLU) In Vitro - B16F10” value in the test with B16F10 Cell Line is listed as 1.98E+06 RLU. Also, the “Total Luciferin Signal (RLU) In Vitro - MC38.K” value in the test with MC38.K Cell Line is on record as 1.09E+06 RLU. Moreover, the “Total Luciferin Signal (RLU) In Vitro - AML12” value in the test on AML12 Cell Line is recorded as 3.98E+05 RLU.
On the same counts, the results for `CCCCCCCCC(CCCCCCCC)OC(=O)CCCCCCCN(CCO)CCCCCCCC(=O)OCCCCCCCCC(C)C` [Compound 2] are 6.20E+09 Photons/s, 5.94E+06 RLU, 4.24E+06 RLU and 4.76E+06 RLU.
Regarding `CCCCCCCCCCCCN(CCO)CCCCCCCC(=O)OC(CCCCCCCC)CCCCCCCC` [Compound 41], the “Total Liver Tissue Luciferin Signal” value in the test with Liver was determined as 8.12E+09 Photons/s. Moreover, in the test with B16F10 Cell Line, the “Total Luciferin Signal (RLU) In Vitro - B16F10” value is 2.52E+06 RLU. In the test on AML12 Cell Line, the “Total Luciferin Signal (RLU) In Vitro - AML12” value is reported as 3.63E+06 RLU.
`CCCCCCCCCCCOC(=O)CCCCCN(CCO)CCCCCCCC(=O)OC(CCCCCCCC)CCCCCC(C)C` (stereo not drawn) [Compound 18]: the “Total Liver Tissue Luciferin Signal” value in the test on Liver amounted to 4.74E+09 Photons/s. In the test with B16F10 Cell Line, the “Total Luciferin Signal (RLU) In Vitro - B16F10” value was determined as 2.65E+06 RLU. Also, the “Total Luciferin Signal (RLU) In Vitro - AML12” value in the test with AML12 Cell Line worked out at 2.99E+06 RLU.

These data come from patent US20260116845A1, “LIPIDS AND COMPOSITIONS THEREOF” (Kernal Biologics, Inc., priority 2023, published 2026).
